Measured values published in the supplement of paper PMC10307832.

How the values were obtained:
Assay in all cases: relative viability (nuclei count vs DMSO), 5 days (fraction); higher = more cells survive
[1] = compound: CCN(CC)CCNC(=O)c1c(C)[nH]c(/C=C2\C(=O)Nc3ccc(F)cc32)c1C [Sunitinib] + O=C(CCCCCCC(=O)Nc1ccccc1)NO [Vorinostat] (partner 1 µM)
Outline: (§1)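 The day after seeding in 1536-well plates, lung cancer cell lines were treated by pin tool with a single drug, or with a fixed anchor-drug dose together with five library-drug doses (not always all listed) in √10 steps. After 5 days, a combined fix-and-stain solution (final 0.05% Triton X-100, 1% formaldehyde, 1 ug/ml Hoechst) was added. Nuclei counted on 4× images gave relative viability as treated counts over vehicle counts, reported as the median of duplicate plates.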

[2] = compound: CCN(CC)CCNC(=O)c1c(C)[nH]c(/C=C2\C(=O)Nc3ccc(F)cc32)c1C [Sunitinib] + Nc1nc2[nH]cc(CCc3ccc(C(=O)N[C@@H](CCC(=O)O)C(=O)O)cc3)c2c(=O)[nH]1 [Pemetrexed] (partner 0.2 µM)
Outline: as §1

[3] = compound: CCN(CC)CCNC(=O)c1c(C)[nH]c(/C=C2\C(=O)Nc3ccc(F)cc32)c1C [Sunitinib] + Cc1nc(Nc2ncc(C(=O)Nc3c(C)cccc3Cl)s2)cc(N2CCN(CCO)CC2)n1 [Dasatinib] (partner 0.075 µM)
Outline: as §1

[4] = compound: CCN(CC)CCNC(=O)c1c(C)[nH]c(/C=C2\C(=O)Nc3ccc(F)cc32)c1C [Sunitinib] + CC(=O)c1c(C)c2cnc(Nc3ccc(N4CCNCC4)cn3)nc2n(C2CCCC2)c1=O [Palbociclib] (partner 0.5 µM)
Outline: as §1

Cell Line	relative viability ([1]; first compound 0.06325 µM)	relative viability ([1]; first compound 0.2 µM)	relative viability ([1]; first compound 0.6325 µM)	relative viability ([1]; first compound 2 µM)	relative viability ([2]; first compound 0.2 µM)	relative viability ([2]; first compound 0.6325 µM)	relative viability ([2]; first compound 2 µM)	relative viability ([3]; first compound 0.02 µM)	relative viability ([3]; first compound 0.06325 µM)	relative viability ([3]; first compound 0.2 µM)	relative viability ([3]; first compound 0.6325 µM)	relative viability ([3]; first compound 2 µM)	relative viability ([4]; first compound 0.06325 µM)	relative viability ([4]; first compound 0.2 µM)	relative viability ([4]; first compound 0.6325 µM)	relative viability ([4]; first compound 2 µM)	relative viability ([1]; first compound 0.02 µM)	relative viability ([2]; first compound 0.02 µM)	relative viability ([2]; first compound 0.06325 µM)	relative viability ([4]; first compound 0.02 µM)
NCI-H1793	0.867	0.989	0.91	0.825	1.29	0.949	0.831	0.397	0.366	0.429	0.444	0.346	0.307	0.311	0.299	0.319				
NCI-H1915	0.538	0.562	0.5	0.505	0.499	0.527	0.484	0.302	0.346	0.322	0.34	0.296	0.545	0.573	0.502	0.579	0.483	0.428	0.486	0.472
NCI-H1944	0.736	0.659	0.625	0.559	0.772	0.684	0.655	0.205	0.246	0.211	0.239	0.211	0.317	0.378	0.346	0.339	0.547	0.588		0.337
NCI-H1975	0.714	0.77	0.733	0.666	0.317	0.298	0.305	0.36	0.403	0.399	0.423	0.344	0.715	0.76	0.727	0.473	0.693	0.289	0.318	0.531
NCI-H1993	0.727	0.911	0.747	0.9	0.584	0.55	0.575	0.735	0.545	0.779	0.654	0.645	0.7	0.687	0.815	0.622	0.857	0.436	0.563	0.635
NCI-H2009	0.765	0.828	0.746	0.723	1.1	1.08	1.12	0.291	0.379	0.288	0.393	0.309	0.241	0.212	0.231	0.25	0.725	1.03	1.01	0.183
NCI-H2023	0.585	0.906	0.812	0.488	0.265	0.301	0.222	0.459	0.582	0.628	0.707	0.642	0.424	0.456	0.437	0.343	0.575	0.235	0.307	0.361
NCI-H2085	0.827	0.84	0.813	0.807	1.04	0.952	0.87	0.271	0.269	0.222	0.256	0.26	0.5	0.472	0.494	0.494	0.784	0.909		0.454
